What was measured:
bronchial secretion = assay: Expectorating activity: amount of bronchial secretion in rabbits (method of Perry et al.); type: in vivo, rabbit; details: male rabbits, 20 to 40 mg
Method: The experimentation was carried out on male rabbits, weighting 2-3 kg, narcotized with ethyl urethane, according to the method described by Perry et al. (J. Pharm. Exp. Ther. 73, 65 (1941)). Each compound of formula (I) was administered to 5 rabbits in doses ranging from 20 to 40 mg, 1 hour after the incannulation. The control group (8 rabbits) was given only water. The amount of secretion was determined 1, 2 and 4 hours after the administration.
Effects of compounds of formula (I) on the bronchial secretion
Percentage variations (± standard error) of the
bronchial secretion, in comparison with the
basic values, in the following times after the […]

[1] = Acute toxicity, LD50 by the Weil method, intraperitoneal administration in the mouse; details: in vivo, ip, N = 4 K = 4, confidential limits given
Excerpt: LD50 of the compounds of formula (I), evaluated by the Weil method ("Tables for convenient calculation of median effective dose (LD50 or ED50) and instructions in their use", Biometrics, 249-253, 1952), by intraperitoneal administration in the mouse.
LD50 and confidential limits, mg/kg i.p., of the
compounds of formula I. Weil method, N = 4 K = 4

bronchial tree = assay: Bronchosecretogogic activity: sodium fluoresceine method in the rat (Mawatari); type: in vivo; details: 500 mg/kg i.p.
Method: The bronchosecretogogic activity of compound (2), i.e. 2-methoxyphenyl N-[2-(2-thenoylthio)propionyl]aminoacetate, was tested according to the method of the sodium fluoresceine in the rat, as described by Mawatari (Experimental Studies on the expectorant action of several drugs, Kagoshima Daigaku Igaku Zasshi 27, 561 (1976)), in comparison with S-carboxymethyl-cysteine (CMC) and N-(2-mercaptopropionyl)glycine (MPG).
Removal of the sodium fluoresceine from the bronchial
tree (percentage increase versus the controls).

cough = assay: Antitussive activity: cough induced by citric acid aerosol in Guinea pigs; type: in vivo
Method: This activity was tested on Guinea pigs, in which cough was induced by citric acid aerosol, in comparison with codeine. Compound (2) was administered per os and intraperiotoneally.
Antitussive activity. Cough induced in Guinea pigs

esterase = assay: In vitro enzymatic hydrolysis of compound (2); type: in vitro ADME
Method: "In vitro" and "in vivo" tests were carried out.

[2] = In vivo pharmacokinetics in the rat
Excerpt: After administration of equimolecular doses of N-[2-(2-thenoylthio)propionyl]glycine and of the corresponding 2-methoxyphenyl ester (compound (2)), higher lung concentrations of N-(2-mercaptopropionyl)glycine and thiophene-2-carboxylic acid are found in the case of compound (2) administration.

[3] = equimolecular doses, versus N-[2-(2-thenoylthio)propionyl]glycine

SMILES | Percentage variations (± standard error) of the bronchial secretion, in comparison with the basic values (bronchial secretion; 1h after the administration) | Percentage variations (± standard error) of the bronchial secretion, in comparison with the basic values (bronchial secretion; 2h after the administration) | Percentage variations (± standard error) of the bronchial secretion, in comparison with the basic values (bronchial secretion; 4h after the administration) | LD50 [1] [mg/kg] | also measured
COc1ccccc1OC(=O)CNC(C)=O [(1), 2-methoxyphenyl ester of N-acetlyglycine] | +1,3 ± 0,02% | -1,4 ± 0,03% | +2,3 ± 0,07% | 1010 | –
COc1ccccc1OC(=O)C(C)NC(C)=O (stereo not drawn) [(3), 2-methoxyphenyl ester of N-acetylalanine] | +0,8 ± 0,04% | +1,2 ± 0,04% | +2,7 ± 0,08% | 1150 | –
COc1ccccc1OC(=O)C(C)NC(=O)C(C)SC(=O)c1cccs1 (stereo not drawn) [(4), 2-methoxyphenyl ester of N-[2-(2-thenoylthio)propionyl]alanine] | +1,5 ± 0,05% | +1,9 ± 0,08% | +2,5 ± 0,09% | 960 | –
COc1ccccc1OC(=O)C(CS)NC(C)=O (stereo not drawn) [(5), 2-methoxyphenyl ester of N-acetylcysteine] | +0,9 ± 0,05% | +2,1 ± 0,01% | +3,8 ± 0,09% | 1270 | –
COc1ccccc1OC(=O)C(CSC(C)=O)NC(C)=O (stereo not drawn) [(6), 2-methoxyphenyl ester of N,S-diacetylcysteine] | +0,4 ± 0,05% | +2,1 ± 0,05% | +1,9 ± 0,04% | 1580 | –
COc1ccccc1OC(=O)C(CSCC(=O)O)NC(C)=O (stereo not drawn) [(7), 2-methoxyphenyl ester of N-acetyl-S-carboxymethylcysteine] | +0,5 ± 0,03% | +0,7 ± 0,07% | +1,9 ± 0,09% | 1250 | –
COc1ccccc1OC(=O)C(CS)NC(=O)C(C)SC(=O)c1cccs1 (stereo not drawn) [(8), 2-methoxyphenyl ester of N-[2-(2-thenoylthio)propionyl]cysteine] | +1,8 ± 0,04% | +1,7 ± 0,09% | +2,7 ± 0,05% | 980 | –
COc1ccccc1OC(=O)C(CSC(C)=O)NC(=O)C(C)SC(=O)c1cccs1 (stereo not drawn) [(9), 2-methoxyphenyl ester of N-[2-(2-thenoylthio)propionyl]-S-acetylcysteine] | +1,9 ± 0,03% | +1,5 ± 0,04% | +2,4 ± 0,04% | 1230 | –
COc1ccccc1OC(=O)C(CSCC(=O)O)NC(=O)C(C)SC(=O)c1cccs1 (stereo not drawn) [(10), 2-methoxyphenyl ester of N-[2-(2-thenoylthio)propionyl]-S-carboxymehtylcysteine] | +0,8 ± 0,02% | +1,3 ± 0,04% | +2,1 ± 0,03% | 1340 | –
N[C@@H](CSCC(=O)O)C(=O)O [CMC, S-carboxymethyl-cysteine, reference compound] | – | – | – | – | Removal of the sodium fluoresceine from the bronchial tree (percentage increase versus the controls) (bronchial tree): 33.4%
COc1ccccc1OC(=O)CNC(=O)C(C)SC(=O)c1cccs1 (stereo not drawn) [Compound (2), 2-methoxyphenyl N-[2-(2-thenoylthio)propionyl]aminoacetate] | +0,3 ± 0,01% | +0,7 ± 0,03% | +1,4 ± 0,05% | 1240 | % inhibition of the cough (cough; 100 mg/kg i.p.): 95.8%; % inhibition of the cough (cough; 500 mg/kg per os): 82.3%; enzymatic hydrolysis products (esterase): enzymetically hydrolized giving N-(2-mercaptopropionyl)glycine, thiophene-2-carboxylic acid and guaiacol; tissue with highest esterase activity (esterase): highest esterase activity is showed by the lung; Removal of the sodium fluoresceine from the bronchial tree (percentage increase versus the controls) (bronchial tree): 123.5%; bronchosecretogogic activity, comparison with CMC and MPG (bronchial tree): much higher than CMC and MPG; pulmonary tropism [2]: high pulmonary tropism; lung concentrations of N-(2-mercaptopropionyl)glycine [2, 3]: higher; lung concentrations of thiophene-2-carboxylic acid [2, 3]: higher; absorption ([2]; oral administration): mostly absorbed as such after oral administration
CC(S)C(=O)NCC(=O)O (stereo not drawn) [MPG, N-(2-mercaptopropionyl)glycine, reference compound] | – | – | – | – | Removal of the sodium fluoresceine from the bronchial tree (percentage increase versus the controls) (bronchial tree): 21.9%
COc1ccc2c3c1O[C@H]1[C@@H](O)C=C[C@H]4[C@@H](C2)N(C)CC[C@@]341 [codeine, reference compound] | – | – | – | – | % inhibition of the cough (cough; 12.5 mg/kg i.p.): 90.2%; % inhibition of the cough (cough; 25 mg/kg per os): 75.6%
